# Source: PubChem BioAssay (NCI)
#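 Dose response: 5 concentrations. Exposure: 48 h. Format: 96-well plates. Endpoint: linear interpolation; highest concentration if not reached. Abbreviation: GI50, concentration required for 50% inhibition of growth. Definition used: TGI = concentration required for complete inhibition of growth.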
# Experiments:
# Assay in all cases: growth of human tumour cells (NCI), 48 h
# UACC-62 melanoma = test system: UACC-62 melanoma
# NCI-H23 lung = test system: NCI-H23 lung
# DU-145 prostate = test system: DU-145 prostate
# HCT-116 colon = test system: HCT-116 colon
# SK-MEL-28 melanoma = test system: SK-MEL-28 melanoma
# SNB-75 CNS = test system: SNB-75 CNS
# TK-10 renal = test system: TK-10 renal
# CAKI-1 renal = test system: CAKI-1 renal
# MCF7 breast = test system: MCF7 breast
# MDA-MB-231 breast = test system: MDA-MB-231 breast
# SF-539 CNS = test system: SF-539 CNS
# U251 CNS = test system: U251 CNS
# OVCAR-8 ovarian = test system: OVCAR-8 ovarian
# K-562 leukemia = test system: K-562 leukemia
# UO-31 renal = test system: UO-31 renal
# EKVX NSCLC = test system: EKVX NSCLC
# SK-MEL-5 melanoma = test system: SK-MEL-5 melanoma
# NCI-H522 lung = test system: NCI-H522 lung
# SW-620 colon = test system: SW-620 colon
# OVCAR-5 ovarian = test system: OVCAR-5 ovarian
# HOP-62 NSCLC = test system: HOP-62 NSCLC
# SF-268 CNS = test system: SF-268 CNS
# HS 578T breast = test system: HS 578T breast
# SK-OV-3 ovarian = test system: SK-OV-3 ovarian
# OVCAR-3 ovarian = test system: OVCAR-3 ovarian
# OVCAR-4 ovarian = test system: OVCAR-4 ovarian
# MDA-MB-435 = test system: MDA-MB-435
# NCI-H460 lung = test system: NCI-H460 lung
# M14 melanoma = test system: M14 melanoma
# HCC-2998 colon = test system: HCC-2998 colon
# SK-MEL-2 melanoma = test system: SK-MEL-2 melanoma
# HCT-15 colon = test system: HCT-15 colon
# COLO 205 colon = test system: COLO 205 colon
# T-47D breast = test system: T-47D breast
# SR leukemia = test system: SR leukemia
# RXF 393 renal = test system: RXF 393 renal
# ACHN renal = test system: ACHN renal
# HL-60(TB) leukemia = test system: HL-60(TB) leukemia
# CCRF-CEM leukemia = test system: CCRF-CEM leukemia
# MALME-3M melanoma = test system: MALME-3M melanoma
# HOP-92 NSCLC = test system: HOP-92 NSCLC
# IGROV1 ovarian = test system: IGROV1 ovarian
# NCI-H226 lung = test system: NCI-H226 lung
# NCI/ADR-RES ovarian = test system: NCI/ADR-RES ovarian
# UACC-257 melanoma = test system: UACC-257 melanoma
# A549 NSCLC = test system: A549 NSCLC
# BT-549 breast = test system: BT-549 breast
# LOX IMVI melanoma = test system: LOX IMVI melanoma
# SN12C renal = test system: SN12C renal
# HT29 colon = test system: HT29 colon
# KM12 colon = test system: KM12 colon
# PC-3 prostate = test system: PC-3 prostate
# MOLT-4 leukemia = test system: MOLT-4 leukemia
# SNB-19 CNS = test system: SNB-19 CNS
# 786-0 renal = test system: 786-0 renal
# SF-295 CNS = test system: SF-295 CNS
compound,measurement,setting,value
COc1cc(/C=C2\Oc3cc(OCCCN4CCCC4)ccc3C2=O)cc(OC)c1,GI50,UACC-62 melanoma,2.78 µM
same,TGI,UACC-62 melanoma,11.7 µM
same,GI50,NCI-H23 lung,4.75 µM
same,TGI,NCI-H23 lung,18.7 µM
same,GI50,DU-145 prostate,3.68 µM
same,TGI,DU-145 prostate,12.8 µM
same,GI50,HCT-116 colon,2.78 µM
same,TGI,HCT-116 colon,8.34 µM
same,GI50,SK-MEL-28 melanoma,4.12 µM
same,TGI,SK-MEL-28 melanoma,16 µM
same,GI50,SNB-75 CNS,11 µM
same,TGI,SNB-75 CNS,22.9 µM
same,GI50,TK-10 renal,11.4 µM
same,TGI,TK-10 renal,25.4 µM
same,GI50,CAKI-1 renal,3.54 µM
same,TGI,CAKI-1 renal,16.4 µM
same,GI50,MCF7 breast,2.94 µM
same,TGI,MCF7 breast,13.4 µM
same,GI50,MDA-MB-231 breast,3.28 µM
same,TGI,MDA-MB-231 breast,11.1 µM
same,GI50,SF-539 CNS,1.66 µM
same,TGI,SF-539 CNS,3.12 µM
same,GI50,U251 CNS,2.38 µM
same,TGI,U251 CNS,7.71 µM
same,GI50,OVCAR-8 ovarian,3.71 µM
same,TGI,OVCAR-8 ovarian,15.4 µM
same,GI50,K-562 leukemia,2.3 µM
same,TGI,K-562 leukemia,7.69 µM
same,GI50,UO-31 renal,4.76 µM
same,TGI,UO-31 renal,18 µM
same,GI50,EKVX NSCLC,9.6 µM
same,TGI,EKVX NSCLC,21.9 µM
same,GI50,SK-MEL-5 melanoma,2 µM
same,TGI,SK-MEL-5 melanoma,4.6 µM
same,GI50,NCI-H522 lung,14.2 µM
same,TGI,NCI-H522 lung,32.7 µM
same,GI50,SW-620 colon,3.15 µM
same,TGI,SW-620 colon,12.4 µM
same,GI50,OVCAR-5 ovarian,12.5 µM
same,TGI,OVCAR-5 ovarian,25.4 µM
same,GI50,HOP-62 NSCLC,3.68 µM
same,TGI,HOP-62 NSCLC,15.3 µM
same,GI50,SF-268 CNS,6.1 µM
same,TGI,SF-268 CNS,23.9 µM
same,GI50,HS 578T breast,5.15 µM
same,TGI,HS 578T breast,25.6 µM
same,GI50,SK-OV-3 ovarian,12.9 µM
same,TGI,SK-OV-3 ovarian,26.1 µM
same,GI50,OVCAR-3 ovarian,2.74 µM
same,TGI,OVCAR-3 ovarian,8.17 µM
same,GI50,OVCAR-4 ovarian,7.16 µM
same,TGI,OVCAR-4 ovarian,19.8 µM
same,GI50,MDA-MB-435,10.5 µM
same,TGI,MDA-MB-435,22.4 µM
same,GI50,NCI-H460 lung,3.43 µM
same,TGI,NCI-H460 lung,12.3 µM
same,GI50,M14 melanoma,1.83 µM
same,TGI,M14 melanoma,3.75 µM
same,GI50,HCC-2998 colon,3.91 µM
same,TGI,HCC-2998 colon,15 µM
same,GI50,SK-MEL-2 melanoma,14.7 µM
same,TGI,SK-MEL-2 melanoma,30.2 µM
same,GI50,HCT-15 colon,2.84 µM
same,TGI,HCT-15 colon,12.3 µM
same,GI50,COLO 205 colon,2.58 µM
same,TGI,COLO 205 colon,8.3 µM
same,GI50,T-47D breast,1.93 µM
same,TGI,T-47D breast,4.51 µM
same,GI50,SR leukemia,1.82 µM
same,TGI,SR leukemia,5.04 µM
same,GI50,RXF 393 renal,3.02 µM
same,TGI,RXF 393 renal,12.3 µM
same,GI50,ACHN renal,3.13 µM
same,TGI,ACHN renal,10.7 µM
same,GI50,HL-60(TB) leukemia,2.6 µM
same,TGI,HL-60(TB) leukemia,6.66 µM
same,GI50,CCRF-CEM leukemia,2.76 µM
same,TGI,CCRF-CEM leukemia,10.4 µM
same,GI50,MALME-3M melanoma,1.77 µM
same,TGI,MALME-3M melanoma,4.26 µM
same,GI50,HOP-92 NSCLC,3.2 µM
same,TGI,HOP-92 NSCLC,16.8 µM
same,GI50,IGROV1 ovarian,4.4 µM
same,TGI,IGROV1 ovarian,16.9 µM
same,GI50,NCI-H226 lung,13.8 µM
same,TGI,NCI-H226 lung,27 µM
same,GI50,NCI/ADR-RES ovarian,6.17 µM
same,TGI,NCI/ADR-RES ovarian,21.6 µM
same,GI50,UACC-257 melanoma,4.54 µM
same,TGI,UACC-257 melanoma,17 µM
same,GI50,A549 NSCLC,3.44 µM
same,TGI,A549 NSCLC,14.8 µM
same,GI50,BT-549 breast,8.76 µM
same,TGI,BT-549 breast,21.7 µM
same,GI50,LOX IMVI melanoma,1.6 µM
same,TGI,LOX IMVI melanoma,3.05 µM
same,GI50,SN12C renal,10.3 µM
same,TGI,SN12C renal,22 µM
same,GI50,HT29 colon,2.8 µM
same,TGI,HT29 colon,8.69 µM
same,GI50,KM12 colon,4.82 µM
same,TGI,KM12 colon,17.7 µM
same,GI50,PC-3 prostate,4.52 µM
same,TGI,PC-3 prostate,18.1 µM
same,GI50,MOLT-4 leukemia,2.59 µM
same,TGI,MOLT-4 leukemia,9.19 µM
same,GI50,SNB-19 CNS,3.31 µM
same,TGI,SNB-19 CNS,13.4 µM
same,GI50,786-0 renal,3.86 µM
same,TGI,786-0 renal,14.5 µM
same,GI50,SF-295 CNS,2.88 µM
same,TGI,SF-295 CNS,10.6 µM
